Molecular target: T1, ΔF508-CFTR (Homo sapiens, UniProt P13569, DEL508-508)
T1 construct: expressed in transfected cells
Assay: Membrane potential optical assay for ΔF508-CFTR correction
Type: cell-based
Conditions: for % Efficacy / Emax: relative efficacy
From the text: Assays for Detecting and Measuring ΔF508-CFTR Correction Properties of Compounds
I) Membrane Potential Optical Methods for Assaying ΔF508-CFTR Modulation Properties of Compounds
The optical membrane potential assay utilized voltage-sensitive FRET sensors described by Gonzalez and Tsien (See Gonzalez, J. E. and R. Y. Tsien (1995) “Voltage sensing by fluorescence resonance energy transfer in single cells” Biophys J 69(4): 1272-80, and Gonzalez, J. E. and R. Y. Tsien (1997) “Improved indicators of cell membrane potential that use fluorescence resonance energy transfer” Chem Biol 4(4): 269-77) in combination with instrumentation for measuring fluorescence changes such as the Voltage/Ion Probe Reader (VIPR) (See, Gonzalez, J. E., K. Oades, et al. (1999) “Cell-based assays and instrumentation for screening ion-channel targets” Drug Discov Today 4(9): 431-439).
These voltage sensitive assays are based on the change in fluorescence resonant energy transfer (FRET) between the membrane-soluble, voltage-sensitive dye, DiSBAC2(3), and a fluorescent phospholipid, CC2-DMPE, which is attached to the outer leaflet of the plasma membrane and acts as a FRET donor. Changes in membrane potential (Vm) cause the negatively charged DiSBAC2(3) to redistribute across the plasma membrane and the amount of energy transfer from CC2-DMPE changes accordingly. The changes in fluorescence emission were monitored using VIPR™ II, which is an integrated liquid handler and fluorescent detector designed to conduct cell-based screens in 96- or 384-well microtiter plates.
NIH3T3 mouse fibroblasts stably expressing ΔF508-CFTR are used for optical measurements of membrane potential. The cells are maintained at 37° C. in 5% CO2 and 90% humidity in Dulbecco's modified Eagle's medium supplemented with 2 mM glutamine, 10% fetal bovine serum, 1×NEAA, β-ME, 1× pen/strep, and 25 mM HEPES in 175 cm^2 culture flasks. For all optical assays, the cells were seeded at 30,000/well in 384-well matrigel-coated plates and cultured for 2 hrs at 37° C. before culturing at 27° C. for 24 hrs. for the potentiator assay. For the correction assays, the cells are cultured at 27° C. or 37° C. with and without compounds for 16-24 hoursB) Electrophysiological Assays for assaying ΔF508-CFTR modulation properties of compounds

T1 sequence (P13569 with tags, fused parts or gaps DEL508-508): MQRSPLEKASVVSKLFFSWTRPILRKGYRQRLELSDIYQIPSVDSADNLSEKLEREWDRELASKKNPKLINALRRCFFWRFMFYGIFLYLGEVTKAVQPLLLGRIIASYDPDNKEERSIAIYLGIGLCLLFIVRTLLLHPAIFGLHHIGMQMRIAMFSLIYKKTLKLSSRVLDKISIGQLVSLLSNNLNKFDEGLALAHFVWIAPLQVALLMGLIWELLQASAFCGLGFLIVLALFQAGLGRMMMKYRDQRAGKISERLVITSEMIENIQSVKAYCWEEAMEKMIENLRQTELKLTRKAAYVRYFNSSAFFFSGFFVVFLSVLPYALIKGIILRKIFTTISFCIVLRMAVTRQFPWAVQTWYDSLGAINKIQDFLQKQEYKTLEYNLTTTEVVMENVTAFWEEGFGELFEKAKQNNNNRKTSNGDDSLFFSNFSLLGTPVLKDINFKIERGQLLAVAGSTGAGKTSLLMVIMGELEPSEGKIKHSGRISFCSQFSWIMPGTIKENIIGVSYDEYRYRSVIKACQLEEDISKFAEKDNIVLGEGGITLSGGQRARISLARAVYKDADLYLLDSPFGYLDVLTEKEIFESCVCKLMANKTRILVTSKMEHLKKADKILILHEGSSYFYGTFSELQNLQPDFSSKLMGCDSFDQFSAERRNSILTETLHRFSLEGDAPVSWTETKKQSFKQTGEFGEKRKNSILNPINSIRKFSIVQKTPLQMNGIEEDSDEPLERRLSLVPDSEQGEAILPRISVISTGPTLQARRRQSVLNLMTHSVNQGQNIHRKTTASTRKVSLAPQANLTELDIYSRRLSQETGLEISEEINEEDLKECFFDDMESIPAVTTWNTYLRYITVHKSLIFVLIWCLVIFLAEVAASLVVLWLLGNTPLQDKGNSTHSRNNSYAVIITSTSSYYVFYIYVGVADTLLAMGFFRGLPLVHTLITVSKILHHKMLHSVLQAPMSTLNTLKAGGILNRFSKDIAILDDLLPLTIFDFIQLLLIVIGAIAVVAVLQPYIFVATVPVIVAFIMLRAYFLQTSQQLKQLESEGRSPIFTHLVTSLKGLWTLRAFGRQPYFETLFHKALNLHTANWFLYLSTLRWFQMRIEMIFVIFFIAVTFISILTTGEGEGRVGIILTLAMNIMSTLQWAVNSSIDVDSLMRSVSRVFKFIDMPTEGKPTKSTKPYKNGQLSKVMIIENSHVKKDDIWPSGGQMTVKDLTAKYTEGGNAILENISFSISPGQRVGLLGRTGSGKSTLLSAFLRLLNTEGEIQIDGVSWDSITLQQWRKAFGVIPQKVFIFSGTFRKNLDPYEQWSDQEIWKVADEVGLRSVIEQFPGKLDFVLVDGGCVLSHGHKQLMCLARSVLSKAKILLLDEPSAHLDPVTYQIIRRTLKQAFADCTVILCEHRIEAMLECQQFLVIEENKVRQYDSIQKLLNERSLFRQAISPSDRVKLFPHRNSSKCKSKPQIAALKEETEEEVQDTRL

Row | Compound | EC50 [nM] | % Efficacy | Emax [%]
1 | 1-(Benzo[d][1,3]dioxol-6-yl)-N-(5-((R)-(2-chlorophenyl)((R)-3-hydroxypyrrolidin-1-yl)methyl)thiazol-2-yl)cyclopropanecarboxamide [Compound 2] | 2000 to 20000 | +++ (“+++” means >100%) | 
2 | 1-(Benzo[d][1,3]dioxol-6-yl)-N-(5-((S)-(2-chlorophenyl)((R)-3-hydroxypyrrolidin-1-yl)methyl)thiazol-2-yl)cyclopropanecarboxamide [Compound 1] | < 2000 | +++ (“+++” means >100%) | 
3 | O=C(Nc1ncc([C@H](c2ccc(Cl)cc2F)N2CC[C@@H](O)C2)s1)C1(c2ccc3c(c2)OCO3)CC1 [Compound 3] | < 2000 |  | > 100
4 | O=C(Nc1ncc([C@H](c2ccc(Cl)cc2F)N2CC[C@@H](O)C2)s1)C1(c2ccc3c(c2)OC(F)(F)O3)CC1 [Compound 4] | < 2000 |  | > 100
5 | O=C(Nc1ncc([C@H](c2ccc(Cl)c(Cl)c2)N2CC[C@@H](O)C2)s1)C1(c2ccc3c(c2)OCO3)CC1 [Compound 5] | < 2000 |  | > 100
6 | O=C(Nc1ncc([C@@H](c2ccc(Cl)c(Cl)c2)N2CC[C@@H](O)C2)s1)C1(c2ccc3c(c2)OCO3)CC1 [Compound 6] | < 2000 |  | > 100
7 | Cc1nc(NC(=O)C2(c3ccc4c(c3)OCO4)CC2)sc1[C@@H](c1ccccc1Cl)N1CC[C@H](O)C1 [Compound 7] | < 2000 |  | > 100
8 | Cc1nc(NC(=O)C2(c3ccc4c(c3)OCO4)CC2)sc1[C@H](c1ccccc1Cl)N1CC[C@H](O)C1 [Compound 8] | < 2000 |  | > 100
9 | Cc1nc(NC(=O)C2(c3ccc4c(c3)OC(F)(F)O4)CC2)sc1[C@@H](c1ccccc1Cl)N1CC[C@H](O)C1 [Compound 9] | < 2000 |  | > 100
10 | Cc1nc(NC(=O)C2(c3ccc4c(c3)OC(F)(F)O4)CC2)sc1[C@H](c1ccccc1Cl)N1CC[C@H](O)C1 [Compound 10] | < 2000 |  | > 100
11 | O=C(Nc1ncc(C(c2ccccc2Cl)N2CC[C@@H](O)C2)s1)C1(c2ccc3c(c2)OC(F)(F)O3)CC1 (some centres unmarked) [Compound 11] |  |  | > 100
12 | O=C(Nc1ncc([C@H](c2ccccc2Cl)N2CC[C@@H](O)C2)s1)C1(c2ccc3c(c2)OC(F)(F)O3)CC1 [Compound 11] | < 2000 |  | 
13 | O=C(Nc1ncc([C@H](c2ccccc2Cl)N2CC[C@@H](O)C2)s1)C1(c2ccc3c(c2)OCO3)CC1 [Compound 12] | < 2000 |  | 25 to 100
14 | O=C(Nc1ncc([C@@H](c2ccccc2Cl)N2CC[C@@H](O)C2)s1)C1(c2ccc3c(c2)OCO3)CC1 [Compound 13] | < 2000 |  | > 100
